Consider eleven compounds from patent US20260209152A1, “Substituted Hydroxystilbene Compounds and Derivatives, Synthesis and Uses Thereof” (Kynan Duke IP, LLC, priority 2019, published 2026).

A word on the IC50: it is the concentration needed to halve the response being measured.

Assay type in all cases: cell-based, human
One assay deals with Bladder RT-112. Put plainly: CellTiter Glo cell viability assay. The note with it: Homo sapiens. How it is done:
(§1) 1.7*10^3 cells/well were seeded in quadruplicates in 96-well plate after plating. Drugs were added at 5 μM and 2-fold dilutions over 18 concentrations (0.000038146-5 […] range) to generate a dose-response curve. Cell growth was assessed on day 1, 3 and 5 after drug treatments using the CellTiter Glo Luminescence Cell Viability Assay (Promega) according to manufacturer's protocol. Thermo Scientific Varioskan LUX Multimode Microplate instrument was used for plate reading. Data are expressed as mean luminescence (arbitrary units) ±S.D.
(§2) Cell Viability Assays were employed to determine the concentration of Compound 1 (KYN-001) and analogues where the response is reduced by half. For each treatment of cancer cells, 1, 2, 5, 10 and 20 μM solutions of compounds were applied. GraphPad Prism 7 software was used to fit dose response curves. Relative Luminescence Units were plotted against the log values of the doses used and the nonlinear regression model was used for data analysis.
(§3) The protocol for cell proliferation was optimized for Compound 8 (KYN-119) to enable a more accurate assessment of its low IC50 value. In this protocol, 18 dosages (2 fold dilutions ranging from 0.000038146 to 5 μM) were applied to cells seeded in 96-well plates, and Luminescence was measured after 1, 3 and 5 days upon treatments.

Another assay deals with Lung NCI-H1299. Put plainly: CellTiter Glo cell viability assay. As to conditions: Homo sapiens, NCI-H1299, 72 h. The procedure:
as §1, §2, §3
(ATP-based viability assays read luminescence as a measure of living cells.)

The test system of a further assay is Kidney A-498. Put plainly: CellTiter Glo cell viability assay. The procedure: 1.7*10^3 cells/well were seeded in quadruplicates in 96-well plate after plating. […] Cell growth was assessed on day 1, 3 and 5 after drug treatments using the CellTiter Glo Luminescence Cell Viability Assay (Promega) according to manufacturer's protocol. Thermo Scientific Varioskan LUX Multimode Microplate instrument was used for plate reading. Data are expressed as mean luminescence (arbitrary units) ±S.D.
Cell Viability Assays were employed to determine the concentration of Compound 1 (KYN-001) and analogues where the response is reduced by half. […] GraphPad Prism 7 software was used to fit dose response curves. Relative Luminescence Units were plotted against the log values of the doses used and the nonlinear regression model was used for data analysis.
The protocol for cell proliferation was optimized for Compound 8 (KYN-119) to enable a more accurate assessment of its low IC50 value. […]

For another assay, the system named is Pancreatic MIA PaCa-2. Put plainly: CellTiter Glo cell viability assay. The procedure: as §1, §2, §3
Day 3 upon treatment of MIA PaCa_2 pancreatic cancer cells, 24 h after plating (11 dilutions), as assessed by CellTiter Glow Assay.

The subject of assay [1] is Cancer cells including pancreatic, bladder, kidney, colon, breast, lung, liver and osteosarcomas. Put plainly: CellTiter Glo cell viability assay, panel of cancer cell lines. As to conditions: for Fold reduction in cancer cell viability inhibition vs 1 [KYN-001]: cell lines tested; for Cancer cell viability inhibition, statement in words: SAR discussion based on IC50 values in Tables 1 to 5, compared with 1 [KYN-001]. How it is done:
Compounds 1 to 15 were evaluated and their effect on cancer growth examined in cell viability assays on multiple cancer types (Tables 1 to 5). Cancer cells including pancreatic, bladder, kidney, colon, breast, lung, liver and osteosarcomas obtained from ATCC (American Type Culture Collection) were authenticated before use by Short Tandem Repeat genomic analysis (Reid Y, Storts D, Riss T and Minor L. Authentication of Human Cell Lines by STR DNA Profiling Analysis. 2013 May 1. In: Markossian S, Sittampalam G S, Grossman A, et al., editors. Assay Guidance Manual. Bethesda (MD): Eli Lilly & Company and the National Center for Advancing Translational Sciences; 2004.). Experimental protocol for each cancer cell line was verified and optimized according to literature reports before use (Tables 1 to 3).
as §1, §2, §3

The test system of another assay is Bladder 5637. Put plainly: CellTiter Glo cell viability assay. As to conditions: Homo sapiens, 120 h; Day 5 upon drug treatment; 10 dosages 0.0001-20 μM (Compound 8: 18 dosages 0.000038146 to 5 μM); read-out: IC50. The procedure:
as §1, §2, §3

Another assay deals with Breast MDA-MB-231. Put plainly: CellTiter Glo cell viability assay. The note with it: Homo sapiens, read-out: IC50. How it is done: as §1, §2, §3
In the next assay the test system is Colon HCT_116. Put plainly: CellTiter Glo cell viability assay. As to conditions: Homo sapiens, HCT-116, 120 h; Day 5 upon drug treatment; 10 dosages 0.0001-20 μM (Compound 8: 18 dosages 0.000038146 to 5 μM); read-out: IC50. The procedure: as §1, §2, §3
For a further assay, the system named is Kidney ACHN. Put plainly: CellTiter Glo cell viability assay. The note with it: Homo sapiens, ACHN, read-out: IC50. How it is done: as §1, §2, §3
For a further assay, the system named is Colon SW_480. Put plainly: CellTiter Glo cell viability assay. The note with it: Homo sapiens, SW480, 72 h; Day 3 upon drug treatment; 10 dosages 0.0001-20 μM; read-out: IC50.
Where [2] appears, read: RT-112, 72 h, Table 4: 3 Days of treatment, 18 2-fold dilutions 5-0.00003 μM, Average (1, 8) or single Exp A-D, read-out: IC50.
Setting [3] is: Homo sapiens, A498, 72 h, Table 4: 3 Days of treatment, 18 2-fold dilutions 5-0.00003 μM, Average (1, 8) or single Exp A-D, read-out: IC50.
[4] abbreviates: Homo sapiens, A498, Table 5A: 11 dilutions 3-0.00001 μM, single experiments Exp E-K, read-out: IC50.
Setting [5] is: Table 5A: 11 dilutions 3-0.00001 μM, single experiments Exp E-K, read-out: IC50.
Where [6] appears, read: RT-112, 120 h, Day 5 upon drug treatment, 10 dosages 0.0001-20 μM (Compound 8: 18 dosages 0.000038146 to 5 μM), read-out: IC50.
[7] abbreviates: MDA-MB-231, 120 h, Day 5 upon drug treatment, 10 dosages 0.0001-20 μM (Compound 8: 18 dosages 0.000038146 to 5 μM).
The mark [8] stands for this setting: 120 h, Day 5 upon drug treatment, 10 dosages 0.0001-20 μM (Compound 8: 18 dosages 0.000038146 to 5 μM).
[9] abbreviates: Homo sapiens, MIA PaCa-2, 120 h, Day 5 upon drug treatment, 10 dosages 0.0001-20 μM (Compound 8: 18 dosages 0.000038146 to 5 μM), read-out: IC50.
[10] abbreviates: Homo sapiens, MIA PaCa-2, Table 5A: 11 dilutions 3-0.00001 μM, single experiments Exp E-K, read-out: IC50.

“Also recorded” adds a separate entry of the source. Read-outs that look alike come from different tables or passages of the source.

As to `CCOc1cc(C=Cc2cc(O)cc(OC)c2CC=C(C)C)ccc1O` [Compound 12, 3-(3-Ethoxy-4-hydroxystyryl)-5-methoxy-4-(3-methylbut-2-en-1-yl)phenol], the IC50 is 347 nM in the assay on Bladder RT-112 (RT-112, 72 h); 827 nM with Lung NCI-H1299; 822 nM with Kidney A-498 (Homo sapiens, A498, 72 h, Table 4: 3 Days of treatment, 18 2-fold dilutions 5-0.00003 μM, Average (1, 8) or single Exp A-D); 1090 nM in the assay on Pancreatic MIA PaCa-2 (Homo sapiens, MIA PaCa-2). In addition, the “Fold reduction in cancer cell viability inhibition vs 1 [KYN-001]” value in assay [1] is “approximately 10”.
With `COc1cc(/C=C/c2cc(O)cc(OC)c2Cc2ccccc2)ccc1O` [Compound 7, (E)-4-benzyl-3-(4-hydroxy-3-methoxystyryl)-5-methoxyphenol], the IC50 is 170 nM with Bladder RT-112 (setting [2]), 288 nM in the assay with Kidney A-498 (setting [3]), 100 to 1000 nM in the assay with Kidney A-498 (setting [4]) and 199 nM in the assay on Kidney A-498 (setting [5]).
Regarding `COc1cc(/C=C/c2cc(O)cc(OC)c2CC=C(C)C)ccc1N` [Compound 23, (E)-3-(4-Amino-3-methoxystyryl)-5-methoxy-4-(3-methylbut-2-en-1-yl)phenol], the IC50 with Bladder 5637 turned out to be 65.3 nM; with Bladder RT-112 (setting [6]) it was 68.2 nM; in the assay on Breast MDA-MB-231 (setting [7]), 138 nM; in the assay with Colon HCT_116 it was 474 nM; in the assay with Kidney ACHN (setting [8]), 260 nM; with Pancreatic MIA PaCa-2 (setting [9]), 180 nM. Further, the “Cancer cell viability inhibition, statement in words” value in assay [1] is “marginally less potent than the parent compound 1; also recorded: activity similar to but overall reduced”.
Regarding `COc1cc(/C=C/c2cc(O)cc(OC)c2Br)ccc1O` [Compound 45, (E)-4-Bromo-3-(4-hydroxy-3-methoxystyryl)-5-methoxyphenol], the IC50 in the assay on Breast MDA-MB-231 (MDA-MB-231, 72 h, Day 3 upon drug treatment, 10 dosages 0.0001-20 μM) is around 10300 nM; with Colon SW_480 it was 10800 nM; in the assay with Pancreatic MIA PaCa-2 (Homo sapiens, MIA PaCa-2, 72 h, Day 3 upon drug treatment, 10 dosages 0.0001-20 μM, read-out: IC50), 20400 nM.
For the compound `COc1cc(/C=C/c2cc(O)cc(OC)c2CC=C(C)C)ccc1NC(C)=O` [Compound 29, (E)-N-(4-(5-hydroxy-3-methoxy-2-(3-methylbut-2-en-1-yl)styryl)-2-methoxyphenyl)acetamide], the IC50 with Bladder 5637 was 67.4 nM; in the assay on Bladder RT-112 (setting [6]), 76.4 nM; in the assay with Breast MDA-MB-231 (setting [7]), 155 nM; in the assay on Colon HCT_116 it was 627 nM; with Kidney ACHN (setting [8]), 281 nM; in the assay with Pancreatic MIA PaCa-2 (setting [9]), 185 nM. Besides, in assay [1], the “Cancer cell viability inhibition, statement in words” value is recorded as “marginally less potent than the parent compound 1”.
Consider `COc1cc(/C=C/c2cc(O)cc(OC(F)(F)F)c2CC=C(C)C)ccc1O` [Compound 11, (E)-3-(4-hydroxy-3-methoxystyryl)-4-(3-methylbut-2-en-1-yl)-5-(trifluoromethoxy)phenol], for which the IC50 in the assay on Bladder RT-112 (setting [2]) amounted to 39.2 nM; with Lung NCI-H1299 (Table 4: 3 Days of treatment, 18 2-fold dilutions 5-0.00003 μM, Average (1, 8) or single Exp A-D, read-out: IC50) it was 193 nM; with Kidney A-498 (setting [3]), 104 nM; in the assay with Pancreatic MIA PaCa-2 (Homo sapiens, MIA PaCa-2, 72 h, Table 4: 3 Days of treatment, 18 2-fold dilutions 5-0.00003 μM, Average (1, 8) or single Exp A-D, read-out: IC50) it was 665 nM.
As to `C=CCc1c(/C=C/c2ccc(O)c(OC)c2)cc(O)cc1OC` [Compound 6, (E)-4-allyl-3-(4-hydroxy-3-methoxystyryl)-5-methoxyphenol], the IC50 with Bladder RT-112 (setting [2]) stood at 862 nM; with Kidney A-498 (setting [3]) it was 1590 nM; with Kidney A-498 (setting [4]) it was 1090 nM; in the assay with Pancreatic MIA PaCa-2 (setting [10]), 1280 nM.
Take `COc1cc(/C=C/c2cc(O)cc(OC)c2CC=C(C)C)ccc1[N+](=O)[O-]` [Compound 22, (E)-3-Methoxy-5-(3-methoxy-4-nitrostyryl)-4-(3-methylbut-2-en-1-yl)phenol]: the IC50 with Breast MDA-MB-231 (setting [7]) was determined as 6200 nM. Besides, the “Cancer cell viability inhibition, statement in words” value in assay [1] is “Loss of the anti-proliferative effect”.
As to `CCCOc1cc(O)cc(/C=C/c2ccc(O)c(OC)c2)c1CC=C(C)C` [Compound 9, (E)-3-(4-hydroxy-3-methoxystyryl)-4-(3-methylbut-2-en-1-yl)-5-propoxyphenol], the IC50 with Bladder RT-112 (setting [2]) was 22 nM; in the assay with Kidney ACHN (72 h, Table 4: 3 Days of treatment, 18 2-fold dilutions 5-0.00003 μM, Average (1, 8) or single Exp A-D), 609 nM; with Kidney A-498 (setting [3]), 19 nM; in the assay with Kidney A-498 (setting [4]), 100 to 1000 nM; in the assay on Kidney A-498 (setting [5]), 147 nM; in the assay with Pancreatic MIA PaCa-2 (setting [10]), 100 to 1000 nM. Further, in the assay with Pancreatic MIA PaCa-2 (setting [5]), the IC50 is 115 nM. In [1], the “Cancer cell viability inhibition, statement in words” value is “comparable or weaker biological activity”.
For the compound `COC(=O)CNc1ccc(/C=C/c2cc(O)cc(OC)c2CC=C(C)C)cc1OC` [Compound 33, Methyl (E)-(4-(5-hydroxy-3-methoxy-2-(3-methylbut-2-en-1-yl)styryl)-2-methoxyphenyl)glycinate], the IC50 in the assay with Bladder 5637 was determined as 85.9 nM; in the assay with Bladder RT-112 (setting [6]), 95.5 nM; with Breast MDA-MB-231 (setting [7]), 169 nM; in the assay with Colon HCT_116, 680 nM; with Kidney ACHN (setting [8]) it was 2840 nM; in the assay with Pancreatic MIA PaCa-2 (setting [9]), 96.8 nM. Besides, the IC50 with Pancreatic MIA PaCa-2 (setting [10]) turned out to be 2040 nM. The “Cancer cell viability inhibition, statement in words” value in assay [1] is recorded as “marginally less potent than the parent compound 1”.
As to `COc1cc(/C=C/c2cc(O)cc(OC)c2CC=C(C)C)cc(C)c1O` [Compound 17, (E)-4-(5-Hydroxy-3-methoxy-2-(3-methylbut-2-en-1-yl)styryl)-2-methoxy-6-methylphenol], the IC50 in the assay on Bladder 5637 is 104 nM; in the assay on Bladder RT-112 (setting [6]) it was 115 nM; in the assay with Breast MDA-MB-231 (setting [7]), 246 nM; with Colon HCT_116, 353 nM; in the assay on Kidney ACHN (setting [8]), 283 nM; in the assay with Kidney A-498 (setting [4]) it was 100 to 1000 nM. For the same compound, the IC50 with Kidney A-498 (setting [5]) was found to be 142 nM; in the assay on Pancreatic MIA PaCa-2 (setting [9]), 182 nM; in the assay on Pancreatic MIA PaCa-2 (setting [10]), 1150 nM. In assay [1], the “Cancer cell viability inhibition, statement in words” value is recorded as “marginally less potent than the parent compound 1”. Further, in assay [1], the “Fold reduction in cancer cell viability inhibition vs 1 [KYN-001]” value was “approximately 3”.
